Measurements as given in ChEMBL document CHEMBL1909046, “DrugMatrix in vitro pharmacology data”.

Tests used:
[1] = DRUGMATRIX: ATPase, Na+/K+ enzyme inhibition (substrate: ATP); format: tissue-based, Sus scrofa, Heart; details: Not Active = under 50% inhibition at 10 µM
[2] = DRUGMATRIX: Atrial Natriuretic Factor (ANF) radioligand binding (ligand: [125I] ANF (rat)); format: cell membranes, Cavia porcellus, Dunkin-Hartley, Adrenal gland, Membrane; details: Not Active = under 50% inhibition at 10 µM
Acetylcholinesterase = Acetylcholinesterase (Homo sapiens, UniProt P22303); experiment: DRUGMATRIX: Acetylcholinesterase enzyme inhibition (substrate: acetylthiocholine); format: cell-based, HEK293; details: hek293; Not Active = under 50% inhibition at 10 µM
Acetylcholinesterase, sequence (P22303 whole entry): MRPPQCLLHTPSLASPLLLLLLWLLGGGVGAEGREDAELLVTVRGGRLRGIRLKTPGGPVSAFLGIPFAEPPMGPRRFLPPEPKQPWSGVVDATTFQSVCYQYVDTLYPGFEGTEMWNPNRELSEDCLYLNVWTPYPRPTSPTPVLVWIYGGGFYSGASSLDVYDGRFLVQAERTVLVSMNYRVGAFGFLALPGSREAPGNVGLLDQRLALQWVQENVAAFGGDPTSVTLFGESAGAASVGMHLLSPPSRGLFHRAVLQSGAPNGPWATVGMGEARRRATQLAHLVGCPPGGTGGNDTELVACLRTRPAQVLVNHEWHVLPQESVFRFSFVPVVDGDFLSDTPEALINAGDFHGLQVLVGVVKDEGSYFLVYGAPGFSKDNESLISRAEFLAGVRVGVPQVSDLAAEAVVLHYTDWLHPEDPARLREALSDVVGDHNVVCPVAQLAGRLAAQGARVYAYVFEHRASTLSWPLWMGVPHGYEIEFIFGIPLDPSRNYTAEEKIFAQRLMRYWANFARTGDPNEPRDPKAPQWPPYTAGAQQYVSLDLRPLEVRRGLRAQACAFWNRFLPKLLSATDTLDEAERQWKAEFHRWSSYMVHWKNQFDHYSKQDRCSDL

[3] = biological target: T1, Vasoactive intestinal polypeptide receptor 1 (Homo sapiens, UniProt P32241); format: cell membranes, Membrane; details: ht-29; also: in other assays of this panel Not Active means under 50% inhibition at 10 µM
T1 sequence (P32241 whole entry): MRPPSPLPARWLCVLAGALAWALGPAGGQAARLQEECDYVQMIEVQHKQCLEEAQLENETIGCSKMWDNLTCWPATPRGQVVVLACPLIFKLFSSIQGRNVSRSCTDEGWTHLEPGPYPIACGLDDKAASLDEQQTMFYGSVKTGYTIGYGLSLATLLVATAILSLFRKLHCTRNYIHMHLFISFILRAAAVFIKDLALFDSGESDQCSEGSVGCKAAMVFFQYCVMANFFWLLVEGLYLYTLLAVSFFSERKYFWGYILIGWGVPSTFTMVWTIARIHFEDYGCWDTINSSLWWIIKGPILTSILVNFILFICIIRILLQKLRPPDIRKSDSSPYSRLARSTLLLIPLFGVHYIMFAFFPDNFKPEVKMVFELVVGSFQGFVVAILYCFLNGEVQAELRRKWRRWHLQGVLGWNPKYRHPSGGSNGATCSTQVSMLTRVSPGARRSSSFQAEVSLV

[4] = DRUGMATRIX: Phosphodiesterase PDE3 enzyme inhibition (substrate: [3H]cAMP + cAMP); format: tissue-based, Homo sapiens; details: platelet, Not Active = under 50% inhibition at 10 µM
[5] = DRUGMATRIX: Calcium Channel Type L, Dihydropyridine radioligand binding (ligand: [3H] Nitrendipine); format: cell membranes, Rattus norvegicus, Wistar, Cerebral cortex, Membrane; details: Not Active = under 50% inhibition at 10 µM
Cytochrome P450 2E1 = Cytochrome P450 2E1 (Homo sapiens, UniProt P05181); details: bti-tn-5b1-4; also: in other assays of this panel Not Active means under 50% inhibition at 10 µM
Cytochrome P450 2E1, sequence (P05181 whole entry): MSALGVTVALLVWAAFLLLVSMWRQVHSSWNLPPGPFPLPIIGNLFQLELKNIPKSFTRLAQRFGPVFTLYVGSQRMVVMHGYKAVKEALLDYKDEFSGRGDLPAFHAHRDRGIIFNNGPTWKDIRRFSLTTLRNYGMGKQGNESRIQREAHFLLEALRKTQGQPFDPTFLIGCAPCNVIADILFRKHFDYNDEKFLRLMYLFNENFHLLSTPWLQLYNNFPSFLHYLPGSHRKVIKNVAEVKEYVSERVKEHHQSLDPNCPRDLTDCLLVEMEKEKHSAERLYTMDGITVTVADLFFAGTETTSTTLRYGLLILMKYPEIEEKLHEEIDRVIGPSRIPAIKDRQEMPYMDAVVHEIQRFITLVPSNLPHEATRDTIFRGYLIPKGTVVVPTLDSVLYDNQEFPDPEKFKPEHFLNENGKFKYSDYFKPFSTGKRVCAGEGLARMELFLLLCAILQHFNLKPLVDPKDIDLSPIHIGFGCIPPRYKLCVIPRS

Cannabinoid receptor 1 = Cannabinoid receptor 1 (Homo sapiens, UniProt P21554); format: cell membranes, Chem-1, Membrane; details: chem-1; also: in other assays of this panel Not Active means under 50% inhibition at 10 µM
Cannabinoid receptor 1, sequence (P21554 whole entry): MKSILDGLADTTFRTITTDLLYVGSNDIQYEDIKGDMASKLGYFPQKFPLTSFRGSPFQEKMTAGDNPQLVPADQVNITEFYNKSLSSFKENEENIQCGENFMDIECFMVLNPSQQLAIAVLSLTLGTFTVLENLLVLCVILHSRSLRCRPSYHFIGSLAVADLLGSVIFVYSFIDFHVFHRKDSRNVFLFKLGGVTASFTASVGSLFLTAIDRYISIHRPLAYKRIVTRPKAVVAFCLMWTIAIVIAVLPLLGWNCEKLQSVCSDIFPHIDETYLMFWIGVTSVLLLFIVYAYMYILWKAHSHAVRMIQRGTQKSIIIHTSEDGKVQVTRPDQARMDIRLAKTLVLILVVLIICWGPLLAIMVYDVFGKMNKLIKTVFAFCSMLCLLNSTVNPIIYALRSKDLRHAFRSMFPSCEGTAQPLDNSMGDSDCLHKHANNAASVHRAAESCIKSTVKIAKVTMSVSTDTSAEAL

Row | Structure (SMILES) | IC50 [1] | Ki [1] | IC50 [2] | Ki [2] | IC50 (Acetylcholinesterase) | IC50 [3] | IC50 [4] | Ki [4] | IC50 [5] | Ki [5] | IC50 (Cytochrome P450 2E1) | Ki (Cytochrome P450 2E1) | IC50 (Cannabinoid receptor 1) | IC50 ([4]; read-out: IC50) [µM]
1 | CC(O)(P(=O)(O)O)P(=O)(O)O [ETIDRONIC ACID] | Not Active | Not Active | Not Active | Not Active | Not Active | Not Active | Not Active | Not Active | Not Active | Not Active | Not Active | Not Active | Not Active | –
2 | CC(C)(C(=O)O)c1ccc(C(O)CCCN2CCC(C(O)(c3ccccc3)c3ccccc3)CC2)cc1 (configuration not stated) [FEXOFENADINE] | Not Active | Not Active | Not Active | Not Active | Not Active | Not Active | Not Active | Not Active | Not Active | Not Active | Not Active | Not Active | Not Active | –
3 | CN1CCN(c2c(F)cc3c(=O)c(C(=O)O)cn(CCF)c3c2F)CC1 [FLEROXACIN] | Not Active | Not Active | Not Active | Not Active | Not Active | Not Active | Not Active | Not Active | Not Active | Not Active | Not Active | Not Active | Not Active | –
4 | O=c1[nH]c(=O)n([C@H]2C[C@H](O)[C@@H](CO)O2)cc1F [FLOXURIDINE] | Not Active | Not Active | Not Active | Not Active | Not Active | Not Active | Not Active | Not Active | Not Active | Not Active | Not Active | Not Active | Not Active | –
5 | COC(=O)Nc1nc2cc(C(=O)c3ccc(F)cc3)ccc2[nH]1 [FLUBENDAZOLE] | Not Active | Not Active | Not Active | Not Active | Not Active | Not Active | Not Active | Not Active | Not Active | Not Active | Not Active | Not Active | Not Active | –
6 | CC(=O)OCC(=O)[C@@]1(O)CC[C@H]2[C@@H]3CCC4=CC(=O)CC[C@]4(C)[C@@]3(F)[C@@H](O)C[C@@]21C [FLUDROCORTISONE ACETATE] | Not Active | Not Active | Not Active | Not Active | Not Active | Not Active | Not Active | Not Active | Not Active | Not Active | Not Active | Not Active | Not Active | –
7 | CCOC(=O)c1ncn2c1CN(C)C(=O)c1cc(F)ccc1-2 [FLUMAZENIL] | Not Active | Not Active | Not Active | Not Active | Not Active | Not Active | Not Active | Not Active | Not Active | Not Active | Not Active | Not Active | Not Active | –
8 | O=C(O)P(=O)(O)O [FOSCARNET] | Not Active | Not Active | Not Active | Not Active | Not Active | Not Active | Not Active | Not Active | Not Active | Not Active | Not Active | Not Active | Not Active | –
9 | Cc1ccc(C)c(OCCCC(C)(C)C(=O)O)c1 [GEMFIBROZIL] | Not Active | Not Active | Not Active | Not Active | Not Active | Not Active | Not Active | Not Active | Not Active | Not Active | Not Active | Not Active | Not Active | –
10 | O=c1c(-c2ccc(O)cc2)coc2cc(O)cc(O)c12 [GENISTEIN] | Not Active | Not Active | Not Active | Not Active | Not Active | Not Active | – | – | Not Active | Not Active | Not Active | Not Active | Not Active | 11
11 | CCC1=C(C)CN(C(=O)NCCc2ccc(S(=O)(=O)NC(=O)N[C@H]3CC[C@H](C)CC3)cc2)C1=O [GLIMEPIRIDE] | Not Active | Not Active | Not Active | Not Active | Not Active | Not Active | Not Active | Not Active | Not Active | Not Active | Not Active | Not Active | Not Active | –
12 | Nc1cc(-c2ccncc2)c[nH]c1=O [INAMRINONE] | Not Active | Not Active | Not Active | Not Active | Not Active | Not Active | Not Active | Not Active | Not Active | Not Active | Not Active | Not Active | Not Active | –
13 | CCCCC1=NC2(CCCC2)C(=O)N1Cc1ccc(-c2ccccc2-c2nnn[nH]2)cc1 [IRBESARTAN] | Not Active | Not Active | Not Active | Not Active | Not Active | Not Active | Not Active | Not Active | Not Active | Not Active | Not Active | Not Active | Not Active | –
14 | CN1CCC(=C2c3ccccc3CC(=O)c3sccc32)CC1 [KETOTIFEN] | Not Active | Not Active | Not Active | Not Active | Not Active | Not Active | Not Active | Not Active | Not Active | Not Active | Not Active | Not Active | Not Active | –
15 | C[N+](C)(C)C[C@H](O)CC(=O)[O-] [LEVOCARNITINE] | Not Active | Not Active | Not Active | Not Active | Not Active | Not Active | Not Active | Not Active | Not Active | Not Active | Not Active | Not Active | Not Active | –
16 | C[C@H]1COc2c(N3CCN(C)CC3)c(F)cc3c(=O)c(C(=O)O)cn1c23.C[C@H]1COc2c(N3CCN(C)CC3)c(F)cc3c(=O)c(C(=O)O)cn1c23.O [LEVOFLOXACIN] | Not Active | Not Active | Not Active | Not Active | Not Active | Not Active | Not Active | Not Active | Not Active | Not Active | Not Active | Not Active | Not Active | –
17 | CCn1cc(C(=O)O)c(=O)c2cc(F)c(N3CCNC(C)C3)c(F)c21 (configuration not stated) [LOMEFLOXACIN] | Not Active | Not Active | Not Active | Not Active | Not Active | Not Active | Not Active | Not Active | Not Active | Not Active | Not Active | Not Active | Not Active | –
18 | CN1CCCC(CN2c3ccccc3Sc3ccccc32)C1 (configuration not stated) [MEPAZINE] | Not Active | Not Active | Not Active | Not Active | Not Active | Not Active | Not Active | Not Active | Not Active | Not Active | Not Active | Not Active | Not Active | –
19 | Cc1cccc(C)c1NC(=O)C1CCCCN1C (configuration not stated) [MEPIVACAINE] | Not Active | Not Active | Not Active | Not Active | Not Active | Not Active | Not Active | Not Active | Not Active | Not Active | Not Active | Not Active | Not Active | –
20 | CN(C)C(=N)NC(=N)N [METFORMIN] | Not Active | Not Active | Not Active | Not Active | Not Active | Not Active | Not Active | Not Active | Not Active | Not Active | Not Active | Not Active | Not Active | –
21 | CC(C)(C)NCC(O)COc1cccc2c1CC(O)C(O)C2 (configuration not stated) [NADOLOL] | Not Active | Not Active | Not Active | Not Active | Not Active | Not Active | Not Active | Not Active | Not Active | Not Active | Not Active | Not Active | Not Active | –
